Experimental findings from ChEMBL document CHEMBL1614630, “Extrapolation of preclinical pharmacokinetics and molecular feature analysis of "discovery-like" molecules to predict human pharmacokinetics” (Drug Metab Dispos, 2006) are described below.

Broadly, the clearance is a measure of how efficiently the substance is removed, as volume per time. Usually Vdss stands for the apparent volume that relates the amount in the body to the concentration in plasma or blood. By Vd is commonly meant a proportionality between amount in the body and measured concentration, not a real space.

Data set [1] can be described thus: Clearance in rat after iv administration. The conditions noted are these: in vivo.
The nature of data set [2]: Volume of distribution at steady state in rat after iv administration. The conditions noted are these: in vivo.
Data set [3] is described as follows: Clearance in dog after iv administration. The conditions noted are these: in vivo.
Data set [4] is described as follows: Volume of distribution at steady state in dog after iv administration. The conditions noted are these: in vivo.
Data set [5] in a line: Clearance in monkey after iv administration. Conditions: macaca, in vivo.
Data set [6] is described as follows: Volume of distribution at steady state in monkey after iv administration. The conditions noted are these: macaca, in vivo.
A short description of data set [7]: Clearance in human after iv administration. The conditions noted are these: in vivo.
Data set [8] is described as follows: Volume of distribution at steady state in human after iv administration. Conditions: in vivo.

Turning to `CCN1CCC[C@H]1CNC(=O)c1c(OC)ccc(Br)c1OC` [REMOXIPRIDE], the clearance stood at 170 mL/min/kg in data set [1], 4.9 mL/min/kg in data set [3], 11.8 mL/min/kg in data set [5] and 1.7 mL/min/kg in data set [7]. Further, in data set [2], the Vdss stood at 4.5 L/kg. Also, the Vd in data set [4] stood at 1.6 L/kg; in data set [6] it was 1.1 L/kg; in data set [8], 0.7 L/kg.
`O=C(CCCN1CCC(O)(c2ccc(Cl)cc2)CC1)c1ccc(F)cc1` [HALOPERIDOL] showed a Vdss in data set [2] of 10.4 L/kg. Also, the results for the Vd in data set [4] and in data set [6] were 37 L/kg and 6.6 L/kg, respectively.
In data set [2], `OC(CCN1CCCCC1)(c1ccccc1)C1CC2C=CC1C2` (stereo not given) [BIPERIDEN] returned a Vdss of 14 L/kg. Moreover, the values for the clearance in data set [3], in data set [5] and in data set [7] were 27 mL/min/kg, 21.9 mL/min/kg and 15.3 mL/min/kg, respectively. Further, the Vd in data set [4] was 9.5 L/kg; in data set [6], 3.6 L/kg; in data set [8], 6.2 L/kg.
`COc1ccc([C@@H]2Sc3ccccc3N(CCN(C)C)C(=O)[C@@H]2OC(C)=O)cc1` [DILTIAZEM]: the clearance in data set [1] turned out to be 82.3 mL/min/kg; in data set [3], 59 mL/min/kg; in data set [5], 34.5 mL/min/kg; in data set [7], 12 mL/min/kg. Further, the Vdss in data set [2] was 3.6 L/kg. For the same compound, the Vd worked out at 21.4 L/kg in data set [4] and 3.5 L/kg in data set [6].
`Cc1cc(C)c(/C=C2\C(=O)Nc3ccccc32)[nH]1` [SEMAXANIB]: the clearance was 45 mL/min/kg in data set [1], 52 mL/min/kg in data set [3], 25.7 mL/min/kg in data set [5] and 14 mL/min/kg in data set [7]. For the same compound, the Vdss in data set [2] amounted to 1.6 L/kg. The Vd in data set [4] came out at 1.4 L/kg; in data set [6], 1.45 L/kg; in data set [8] it was 0.98 L/kg.
Take `CC#C[C@]1(O)CC[C@H]2[C@@H]3CCC4=CC(=O)CCC4=C3[C@@H](c3ccc(N(C)C)cc3)C[C@@]21C` [MIFEPRISTONE]: the clearance is 50 mL/min/kg in data set [1], 15.6 mL/min/kg in data set [3], 24.2 mL/min/kg in data set [5] and 0.33 mL/min/kg in data set [7]. This compound had a Vdss in data set [2] of 4.3 L/kg. The Vd in data set [4] was found to be 10.5 L/kg; in data set [6] it was 32.5 L/kg; in data set [8] it was 0.3 L/kg.
Regarding `CCCN1CCC[C@@H](c2cccc(S(C)(=O)=O)c2)C1`, the clearance in data set [1] came to 46.7 mL/min/kg; in data set [3] it was 36.7 mL/min/kg; in data set [5], 33.3 mL/min/kg; in data set [7], 7.2 mL/min/kg. This compound also registered a Vdss in data set [2] of 1.5 L/kg. In addition, the figures for the Vd in data set [4], in data set [6] and in data set [8] were 2.5 L/kg, 1.4 L/kg and 2.2 L/kg, respectively.
With `CCC1=C[C@@H]2CN(C1)Cc1c([nH]c3ccccc13)[C@@](C(=O)OC)(c1cc3c(cc1OC)N(C)[C@H]1[C@@](O)(C(=O)OC)[C@H](OC(C)=O)[C@]4(CC)C=CCN5CC[C@]31[C@@H]54)C2` [VINORELBINE], the clearance in data set [1] stood at 31.7 mL/min/kg; in data set [3], 20 mL/min/kg; in data set [5], 23.6 mL/min/kg; in data set [7], 21 mL/min/kg. Moreover, in data set [2], the Vdss amounted to 24.4 L/kg. Moreover, the Vd worked out at 49.6 L/kg in data set [4], 11.4 L/kg in data set [6] and 75.6 L/kg in data set [8].
Regarding `COc1ccc(Cl)cc1[C@]1(F)C(=O)Nc2cc(C(F)(F)F)ccc21` [FLINDOKALNER], the clearance in data set [1] is 29.9 mL/min/kg; in data set [3], 3.1 mL/min/kg; in data set [5], 40.2 mL/min/kg; in data set [7] it was 7.63 mL/min/kg. The compound also displayed a Vdss in data set [2] of 3.4 L/kg. Besides, the Vd is 3.2 L/kg in data set [4], 5.4 L/kg in data set [6] and 2.35 L/kg in data set [8].
For the compound `Cc1ncc2n1-c1ccc(Cl)cc1C(c1ccccc1F)=NC2` [MIDAZOLAM], the clearance is 67 mL/min/kg in data set [1], 27 mL/min/kg in data set [3], 24.2 mL/min/kg in data set [5] and 6.6 mL/min/kg in data set [7]. In data set [2], the Vdss amounted to 1.6 L/kg. In addition, the results for the Vd in data set [4], in data set [6] and in data set [8] were 3 L/kg, 1.5 L/kg and 1.1 L/kg, respectively.
As to `C[C@H]1NCc2cc(-c3ccc4c(=O)c(C(=O)O)cn(C5CC5)c4c3OC(F)F)ccc21` [GARENOXACIN], the clearance came out at 12.1 mL/min/kg in data set [1], 2.4 mL/min/kg in data set [3], 3.4 mL/min/kg in data set [5] and 1.2 mL/min/kg in data set [7]. The compound further displayed a Vdss in data set [2] of 0.9 L/kg. For the same compound, the values for the Vd in data set [4], in data set [6] and in data set [8] were 1.3 L/kg, 1 L/kg and 1 L/kg, respectively.
In the case of `CN(C)CCCN1c2ccccc2Sc2ccc(Cl)cc21` [CHLORPROMAZINE], the clearance in data set [1] came out at 61 mL/min/kg; in data set [3] it was 53 mL/min/kg; in data set [5], 24.6 mL/min/kg; in data set [7] it was 4.3 mL/min/kg. For the same compound, in data set [2], the Vdss worked out at 29.1 L/kg. Also, the results for the Vd in data set [4], in data set [6] and in data set [8] were 16.3 L/kg, 8 L/kg and 11.2 L/kg, respectively.
For `COC(=O)C1=C(C)NC(C)=C(C(=O)OC)C1c1ccccc1[N+](=O)[O-]` [NIFEDIPINE], the Vdss in data set [2] amounted to 0.13 L/kg. The Vd in data set [4] amounted to 1.15 L/kg; in data set [6], 0.5 L/kg.
On to `CCOc1cc(Cc2cnc(N)nc2N)cc(OCC)c1-n1cccc1` [EPIROPRIM], for which the clearance was found to be 45 mL/min/kg in data set [1], 10.7 mL/min/kg in data set [3], 30.6 mL/min/kg in data set [5] and 3.5 mL/min/kg in data set [7]. In data set [2], this compound returned a Vdss of 4.6 L/kg. For the same compound, the Vd turned out to be 8.3 L/kg in data set [4], 5.1 L/kg in data set [6] and 2.5 L/kg in data set [8].
Consider `CC1COc2c(N3CCN(C)CC3)c(F)cc3c(=O)c(C(=O)O)cn1c23` (stereo not given) [OFLOXACIN], for which the clearance in data set [1] was determined as 26.3 mL/min/kg; in data set [3] it was 2.65 mL/min/kg; in data set [5], 7.5 mL/min/kg; in data set [7], 4.53 mL/min/kg. This compound showed a volume of distribution (Vdss) in data set [2] of 1.66 L/kg. Further, the Vd in data set [4] is 1.15 L/kg; in data set [6] it was 1.6 L/kg; in data set [8] it was 1.78 L/kg.
Consider `COc1ccc([C@H](CC(=O)O)N2CCN(CCCc3ccc4c(n3)NCCC4)C2=O)cn1`, for which, in data set [2], the Vdss is 1.5 L/kg. In addition, the clearance in data set [3] was 5.4 mL/min/kg; in data set [5], 9 mL/min/kg; in data set [7], 1 mL/min/kg. Also, the Vd in data set [4] was 0.9 L/kg; in data set [6], 0.3 L/kg; in data set [8], 0.2 L/kg.
